Measured values taken from US20120165310A1, “ETHER DERIVATIVES OF BICYCLIC HETEROARYLS” (NOVARTIS AG, priority 2009, published 2012).

Molecular target: T1, IGF-1R (Homo sapiens, UniProt P08069)
T1 construct: expressed in transfected cells; host or cells: Hek293 (Hek293-IGF1R)
Experiment: Cellular IGF-1R assay: capture ELISA (MSD) of receptor phosphorylation in Hek293 cells
Assay type: cell-based
Settings: Hek293-IGF1R cells, 1 h pre-incubation, 10 min IGF stimulation, pIGF1R capture ELISA
Method in brief: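 IC50 from 4-parameter fit of IGF1R phosphorylation, normalised to IGF-stimulated and unstimulated controls, measured by MSD capture ELISA on lysates. Hek293-IGF1R cells in starvation medium got compound 1 h (top 10 μM, 3-fold steps, 0.1% DMSO) before a 10 min pulse of 1.0 ng/μL IGF.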

T1 sequence (P08069 31-1367): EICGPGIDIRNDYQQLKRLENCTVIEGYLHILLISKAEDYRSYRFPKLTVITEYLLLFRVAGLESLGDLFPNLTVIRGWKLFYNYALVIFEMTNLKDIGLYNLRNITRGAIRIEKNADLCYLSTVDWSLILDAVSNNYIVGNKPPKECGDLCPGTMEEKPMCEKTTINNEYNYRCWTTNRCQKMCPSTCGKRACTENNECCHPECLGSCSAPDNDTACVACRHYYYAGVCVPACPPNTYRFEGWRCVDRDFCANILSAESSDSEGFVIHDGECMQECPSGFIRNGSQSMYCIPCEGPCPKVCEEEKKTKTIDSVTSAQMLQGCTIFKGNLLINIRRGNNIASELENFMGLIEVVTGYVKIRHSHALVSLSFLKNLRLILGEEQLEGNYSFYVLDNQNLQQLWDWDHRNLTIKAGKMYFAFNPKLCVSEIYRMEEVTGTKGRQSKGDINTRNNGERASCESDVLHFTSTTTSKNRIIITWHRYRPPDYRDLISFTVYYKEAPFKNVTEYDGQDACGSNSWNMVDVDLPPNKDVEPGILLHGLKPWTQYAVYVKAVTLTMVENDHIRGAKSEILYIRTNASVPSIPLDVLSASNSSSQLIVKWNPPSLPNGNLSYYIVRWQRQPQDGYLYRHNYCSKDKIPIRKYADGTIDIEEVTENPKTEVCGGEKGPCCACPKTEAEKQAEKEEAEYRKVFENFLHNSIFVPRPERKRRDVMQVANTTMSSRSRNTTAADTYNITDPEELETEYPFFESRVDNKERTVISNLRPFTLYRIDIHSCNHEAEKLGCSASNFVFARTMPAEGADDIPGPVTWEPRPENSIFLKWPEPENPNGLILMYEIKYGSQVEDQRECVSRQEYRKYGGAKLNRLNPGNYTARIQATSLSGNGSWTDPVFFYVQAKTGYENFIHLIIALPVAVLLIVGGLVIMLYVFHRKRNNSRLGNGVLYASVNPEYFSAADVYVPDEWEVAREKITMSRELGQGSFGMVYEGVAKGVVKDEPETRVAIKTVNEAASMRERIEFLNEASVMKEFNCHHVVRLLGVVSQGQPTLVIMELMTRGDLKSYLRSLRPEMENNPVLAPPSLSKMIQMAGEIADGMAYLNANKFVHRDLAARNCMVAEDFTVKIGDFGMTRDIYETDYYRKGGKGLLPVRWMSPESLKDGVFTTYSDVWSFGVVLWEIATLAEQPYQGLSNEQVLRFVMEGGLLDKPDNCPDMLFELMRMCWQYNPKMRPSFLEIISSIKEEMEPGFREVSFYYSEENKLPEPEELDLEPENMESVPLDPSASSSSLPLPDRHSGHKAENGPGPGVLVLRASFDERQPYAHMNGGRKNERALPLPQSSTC

Row | Compound | IC50
1 | CS(=O)(=O)NCC1CC(n2cc(-c3cccc(OCC45CCC(CC4)O5)c3)c3c(N)ncnc32)C1 (stereo not drawn) [Example 167, N-(3-{4-amino-5-[3-(7-oxa-bicyclo[2.2.1]hept-1-ylmethoxy)-phenyl]-pyrrolo[2,3-d]pyrimidin-7-yl}-cyclobutylmethyl)-methanesulfonamide] | 167 nM
2 | Nc1ncnc2c1c(-c1cccc(OCC34CCC(CC3)O4)c1)cn2C1CC(CNC(CO)CO)C1 (stereo not drawn) [Example 168, 2-[(3-{4-amino-5-[3-(7-oxa-bicyclo[2.2.1]hept-1-ylmethoxy)-phenyl]-pyrrolo[2,3-d]pyrimidin-7-yl}-cyclobutylmethyl)-amino]-propane-1,3-diol] | 109 nM
3 | Nc1ncnc2c1c(-c1cccc(OCC34CCC(CC3)O4)c1)cn2[C@H]1C[C@@]2(CNC(=O)O2)C1 [Example 169, (E)-2-{4-amino-5-[3-(7-oxa-bicyclo[2.2.1]hept-1-ylmethoxy)-phenyl]-pyrrolo[2,3-d]pyrimidin-7-yl}-5-oxa-7-aza-spiro[3.4]octan-6-one] | 66 nM
4 | Nc1ncnc2c1c(-c1cccc(OCC34CCC(CC3)O4)c1)cn2C1CC(N2CCN(CCO)CC2)C1 (stereo not drawn) [Example 170, 2-[4-(3-{4-amino-5-[3-(7-oxa-bicyclo[2.2.1]hept-1-ylmethoxy)-phenyl]-pyrrolo[2,3-d]pyrimidin-7-yl}-cyclobutyl)-piperazin-1-yl]-ethanol] | 44 nM
5 | Nc1ncnc2c1c(-c1cccc(OCC34CCC(CC3)O4)c1)cn2[C@H]1C[C@H](N2CC3CC2CN3CCO)C1 (stereo partly drawn) [Example 175, 2-[(trans-3-{4-amino-5[3-(7-oxa-bicyclo[2.2.1]hept-1-ylmethoxy)-phenyl]-pyrrolo[2,3-d]pyrimidin-7-yl}-cyclobutyl)-2,5-diaza-bicyclo[2.2.1]hept-2-yl]-ethanol] | 436 nM
6 | CC(=O)NC[C@H]1C[C@@H](n2cc(-c3cccc(OCC45CCC(CC4)O5)c3)c3c(N)ncnc32)C1 [Example 178] | 47 to 112 nM
7 | CCOC(=O)c1nccn1C[C@H]1C[C@@H](n2cc(-c3cccc(OCC45CCC(CC4)O5)c3)c3c(N)ncnc32)C1 [Example 180] | 57 nM
8 | CN1CCN([C@H]2C[C@@H](c3nc(-c4cccc(OCC56CCC(CC5)O6)c4)c4c(N)nccn43)C2)CC1 [Example 181] | 47 nM
9 | Nc1ncnc2c1c(-c1cccc(OCC34CCC(CC3)O4)c1)cn2[C@H]1C[C@@H](CN2C3CCC2CC(O)C3)C1 (stereo partly drawn) [Example 185, 8-(cis-3-{4-Amino-5-[3-(7-oxa-bicyclo[2.2.1]hept-1-ylmethoxy)-phenyl]-pyrrolo[2,3-d]pyrimidin-7-yl}-cyclobutylmethyl)-8-aza-bicyclo[3.2.1]octan-(3-exo)-ol] | 6 nM
10 | Nc1nccn2c1c(-c1cccc(OCC34CCC(CC3)O4)c1)nc2[C@H]1C[C@@H](N2CCC(O)CC2)C1 [Example 187] | 128 nM
11 | NC(=O)[C@@H]1CCCN1[C@H]1C[C@@H](n2cc(-c3cccc(OCC45CCC(CC4)O5)c3)c3c(N)ncnc32)C1 [Example 189, (S)-1-(cis-3-{4-Amino-5-[3-(7-oxa-bicyclo[2.2.1]hept-1-ylmethoxy)-phenyl]-pyrrolo[2,3-d]pyrimidin-7-yl}-cyclobutyl)-pyrrolidine-2-carboxylic acid amide] | 132 nM
12 | NC(=O)[C@@H]1CCCN1[C@H]1C[C@H](n2cc(-c3cccc(OCC45CCC(CC4)O5)c3)c3c(N)ncnc32)C1 [Example 190, (S)-1-(trans-3-{4-Amino-5-[3-(7-oxa-bicyclo[2.2.1]hept-1-ylmethoxy)-phenyl]-pyrrolo[2,3-d]pyrimidin-7-yl}-cyclobutyl)-pyrrolidine-2-carboxylic acid amide] | 435 nM
13 | Nc1ncnc2c1c(-c1cccc(OCC34CCC(CC3)O4)c1)cn2C1CC(O)(CN2CCC(O)CC2)C1 (stereo not drawn) [Example 192, 1-(3-{4-Amino-5-[3-(7-oxa-bicyclo[2.2.1]hept-1-ylmethoxy)-phenyl]-pyrrolo[2,3-d]pyrimidin-7-yl}-1-hydroxy-cyclobutylmethyl)-piperidin-4-ol] | 63 nM
14 | Nc1ncnc2c1c(-c1cccc(OCC34CCC(CC3)O4)c1)cn2[C@H]1C[C@@]2(COC(=O)O2)C1 [Example 197, (E)-2-{4-Amino-5-[3-(7-oxa-bicyclo[2.2.1]hept-1-ylmethoxy)-phenyl]-pyrrolo[2,3d]pyrimidin-7-yl}-5,7-dioxa-spiro[3.4]octan-6-one] | 99 nM
15 | NC(=O)[C@@H]1CCCN1C[C@]1(O)C[C@@H](n2cc(-c3cccc(OCC45CCC(CC4)O5)c3)c3c(N)ncnc32)C1 [Example 198, (S)-(Z)-1-(3-(4-Amino-5-[3-(7-oxa-bicyclo[2.2.1]hept-1-ylmethoxy)-phenyl]-pyrrolo[2,3-d]pyrimidin-7-yl}-1-hydroxy-cyclobutylmethyl)-pyrrolidine-2-carboxylic acid amide] | 33 nM
16 | Nc1ncnc2c1c(-c1cccc(OCC34CCC(CC3)O4)c1)cn2[C@H]1C[C@](O)(CN2CC(O)C2)C1 [Example 199, (Z)-1-(3-{4-Amino-5-[3-(7-oxa-bicyclo[2.2.1]hept-1-ylmethoxy)-phenyl]-pyrrolo[2,3-d]pyrimidin-7-yl}-1-hydroxy-cyclobutylmethyl)-azetidin-3-ol] | 201 nM
17 | NC[C@]1(O)C[C@H](n2cc(-c3cccc(OCC45CCC(CC4)O5)c3)c3c(N)ncnc32)C1 [Example 201] | 478 nM
18 | Nc1ncnc2c1c(-c1cccc(OCC34CCC(CC3)O4)c1)cn2[C@H]1C[C@@](O)(CN2CCS(=O)(=O)CC2)C1 [Example 205, (E)-3-{4-Amino-5-[3-(7-oxa-bicyclo[2.2.1]hept-1-ylmethoxy)-phenyl]-pyrrolo[2,3-d]pyrimidin-7-yl}-1-(1,1-dioxo-1lambda*6*-thiomorpholin-4-ylmethyl)-cyclobutanol] | 14 nM
19 | NC[C@]1(O)C[C@@H](n2cc(-c3cccc(OCC45CCC(CC4)O5)c3)c3c(N)ncnc32)C1 [Example 208, (Z)-1-Aminomethyl-3-{4-amino-5-[3-(7-oxa-bicyclo[2.2.1]hept-1-ylmethoxy)-phenyl]-pyrrolo[2,3-d]pyrimidin-7-yl}-cyclobutanol] | 175 nM
20 | NC(=O)[C@H]1CCCN1CC1(O)CC(n2cc(-c3cccc(OCC45CCC(CC4)O5)c3)c3c(N)ncnc32)C1 (stereo partly drawn) [Example 212, (R)-(E)-1-(3-{4-Amino-5-[3-(7-oxa-bicyclo[2.2.1]hept-1-ylmethoxy)-phenyl]-pyrrolo[2,3-d]pyrimidin-7-yl}-1-hydroxy-cyclobutylmethyl)-pyrrolidine-2-carboxylic acid amide] | 312 nM
21 | Nc1ncnc2c1c(-c1cccc(OCC34CCC(CC3)O4)c1)cn2C1CC(CN2CC[C@@H](O)C2)C1 (stereo partly drawn) [Example 213, (R)-1-(3-{4-Amino-5-[3-(7-oxa-bicyclo[2.2.1]hept-1-ylmethoxy)-phenyl]-pyrrolo[2,3-d]pyrimidin-7-yl}-cyclobutylmethyl)-pyrrolidin-3-ol] | 15 nM
22 | Nc1ncnc2c1c(-c1cccc(OCC34CCC(CC3)O4)c1)cn2[C@H]1C[C@@H](CN2CC[C@@H](O)C2)C1 [Example 214, (R)-1-(cis-3-{4-Amino-5-[3-(7-oxa-bicyclo[2.2.1]hept-1-ylmethoxy)-phenyl]-pyrrolo[2,3-d]pyrimidin-7-yl}-cyclobutylmethyl)-pyrrolidin-3-ol] | 18 nM
23 | Nc1ncnc2c1c(-c1cccc(OCC34CCC(CC3)O4)c1)cn2[C@@H]1CCN(C2CCS(=O)(=O)CC2)C1 [Example 215, 7-[(R)-1-(1,1-dioxo-hexahydro-thiopyran-4-yl)-pyrrolidin-3-yl]-5-[3-(7-oxa-bicyclo[2.2.1]hept-1-ylmethoxy)-phenyl]-7H-pyrrolo[2,3-d]pyrimidin-4-ylamine] | 332 nM
24 | CN1CCC(N2CC[C@@H](n3cc(-c4cccc(OCC56CCC(CC5)O6)c4)c4c(N)ncnc43)C2)CC1 [Example 216, 7-[(R)-1-(1-Methyl-piperidin-4-yl)-pyrrolidin-3-yl]-5-[3-(7-oxa-bicyclo[2.2.1]hept-1-ylmethoxy)-phenyl]-7H-pyrrolo[2,3-d]pyrimidin-4-ylannine] | 80 nM
25 | Cn1nnnc1C[C@]1(O)C[C@H](n2cc(-c3cccc(OCC45CCC(CC4)O5)c3)c3c(N)ncnc32)C1 [Example 217, (E)-3-{4-Amino-5-[3-(7-oxa-bicyclo[2.2.1]hept-1-ylmethoxy)-phenyl]-pyrrolo[2,3-d]pyrimidin-7-yl}-1-(1-methyl-1H-tetrazol-5-ylmethyl)-cyclobutanol] | 598 nM
26 | COC(=O)NC[C@]1(O)C[C@H](n2cc(-c3cccc(OCC45CCC(CC4)O5)c3)c3c(N)ncnc32)C1 [Example 218, (E)-(3-{4-Amino-5-[3-(7-oxa-bicyclo[2.2.1]hept-1-ylmethoxy)-phenyl]-pyrrolo[2,3-d]pyrimidin-7-yl}-1-hydroxy-cyclobutylmethyl)-carbamic acid methyl ester] | 404 nM
27 | CC1(O)CC(n2cc(-c3cccc(OCC45CCC(CC4)O5)c3)c3c(N)ncnc32)C1 (stereo not drawn) [Example 219, (E)-3-(4-amino-5-[3-(7-oxa-bicyclo[2.2.1]hept-1-ylmethoxy)-phenyl]-pyrrolo[2,3-d]pyrimidin-7-yl}-1-methyl-cyclobutanol] | 579 nM
28 | Nc1ncnc2c1c(-c1cccc(OCC34CCC(CC3)O4)c1)cn2[C@H]1C[C@@]2(CNC(=O)CO2)C1 [Example 220, (E)-2-{4-amino-5-[3-(7-oxa-bicyclo[2.2.1]hept-1-ylmethoxy)-phenyl]-pyrrolo[2,3-d]pyrimidin-7-yl}-5-oxa-8-aza-spiro[3.5]nonan-7-one] | 364 nM
29 | Nc1ncnc2c1c(-c1cccc(OCC34CCC(CC3)O4)c1)cn2[C@H]1C[C@H](O)C1 [Example 222, (E)-3-{4-amino-5-[3-(7-oxa-bicyclo[2.2.1]hept-1-ylmethoxy)-phenyl]-pyrrolo[2,3-d]pyrimidin-7-yl}-cyclobutanol] | 352 nM
30 | Nc1ncnc2c1c(-c1cccc(OCC34CCC(CC3)O4)c1)cn2C1CN(C2CS(=O)(=O)C2)C1 [Example 224, 7-[1-(1,1-dioxo-thietan-3-yl)-azetidin-3-yl]-5-[3-(7-oxa-bicyclo[2.2.1]hept-1-ylmethoxy)-phenyl]-7H-pyrrolo[2,3-d]pyrimidin-4-ylamine] | 518 nM
